According to patent US20110281802A1, “COMPOSITION FOR TREATMENT AND PREVENTION OF HAIR LOSS AND PREMATURE GRAYING OF HAIR” (Immudiagnostik AG, priority 2007, published 2011):
Where no end group is shown, it is not given here.

What was measured:
Assay type in all cases: cell-based
[1] = test system: human anagen VI hair follicles; experiment: Melanogenesis, Fontana Masson staining measured by Image J, assay #1; conditions: for Mean relative darkening of the groups (measured by image J), Mean: 9 days, dark=small index number, light=high index number
Method: (§1) Assay #1 Culture HF429: Hair follicles were grown in the wells of a microtiter plate (3 follicles per well) and treated for 9 days with culture medium and test substance as indicated in FIG. 1. Thereafter, elongation, melanogenesis and hair cycle stage were determined.
Fontana Masson staining was performed at the end of the culture period and photos taken of snap frozen sections. The photos were analysed (Image J, public domain, developed at the National Institutes of Health, USA) by measuring the density of two squares, consisting of 150×150 dots, placed over the darkest areas on both sides of the dermal papilla. For Fontana-Masson staining, fixed sections were treated in darkness for 40 minutes with a solution containing 10% silver nitrate (Merck & Co., Inc., Whitehouse Station, N.J., USA; CatNo 1.01512.0100), following by a development in solution containing 5% sodium thiosulphate (Merck & Co., Inc.; CatNo 1.06512.2500) for 1 minute and multiple washings in distilled water for 3 minutes. Counterstaining with 0.5% Neutralrot (Chroma Muenster, Germany, CatNo 2E038). Then dehydration in xylol and covering with Eukitt (O. Kindler GmbH, Freiburg, Germany; CatNo E115).
(§2) All data were analysed by two-tailed unpaired t-test (SPSS analysis software SPSS Inc., Chicago, USA). For determination of elongation, two outliers at top and bottom end of value range were eliminated; with the measurement of melanogenesis one outlier at both, top and bottom range, was eliminated. Results are given as mean value and standard error of measurement (SEM).
Micro-dissected anagen VI hair follicles were treated as above described. At the end of the culture period Fontana Masson staining was performed and photos were taken of the snap frozen sections. The pictures were analysed by measuring the darkness (brightness) of two squares, consisting of 150×150 dots, placed over the darkest areas on both sides of the dermal papilla (dark=small index number, light=high index number). The shading of the different groups was compared to each other and the results were analysed using Student's t-test. The results are shown below in Table 5 and FIG. 7.

[2] = test system: human anagen VI hair follicles; experiment: Hair shaft elongation of organ-cultured hair follicles, assay #3 (culture HF 446); conditions: for Rate of hair growth compared with control (in words): p<0.05
Method: (§3) Human anagen VI hair follicles were isolated from scalp skin obtained from three different individuals undergoing routine face-lift surgery. All experiments were performed according to Helsinki guidelines.
(§4) Hair follicles were isolated as described (Philpott MP et al, Human hair growth in vitro; J Cell Science 1990, 97(Pt 3):463-71). Isolated HFs were maintained in supplemented, serum-free Williams E medium (Biochrom, Cambridge, UK) supplemented with 2 mMol/L L-glutamine (Invitrogen, Paisley, UK), 10 ng/mL hydrocortisone (Sigma-Aldrich, Taufkirchen, Germany), 10 μg/mL insulin (Sigma-Aldrich), and 1% antibiotic/antimycotic mixture (Gibco, Karlsruhe, Germany). Hair follicles were placed in a 24-well plate with 500 μL medium (day 0) and incubated in a CO2-incubator (5% CO2, 37° C.) over night without any treatment. The next day (day 1) medium was exchanged and test substance was added to each well (5 μL of stock solution was added to 495 μL culture medium). The medium or medium with test substance was changed every 48 hours.
(§5) Assay #3 Culture HF 446: Eight hair follicle cultures (3 follicles/well) were treated with various concentration of test substance as described for 2 days, followed by snap freezing and sectioning of two wells. Six wells were treated up to 9 days, then snap frozen and sectioned. The distribution of test substances and concentrations were as indicted in FIG. 3. The parameter measured after two days was proliferation/apoptosis, and the parameters measured after 9 days were elongation, proportion of cells in proliferation/apoptosis, and hair cycle stage
(§6) Hair shaft length measurements were performed every second day on individual hair follicles using a binocular microscope with an eyepiece measuring reticule. The length of the follicle was defined as the distance between the base of the bulb and the cut end of the hair fibre (Philpott MP et al, Human hair growth in vitro; J Cell Science 1990, 97(Pt 3):463-71).
as §2

human hair follicles = experiment: Hair cycle staging of cultured hair follicles (assays #1, #2, #3); conditions: after 9 days of treatment, both tested individuals, all concentrations
Method: (§7) Photodocuments from the Fontana Masson staining were used for hair follicle staging according to previously well-defined morphological criteria (Stenn K S et al, Controls of Hair Follicle Cycling; Physiol Rev 2001, 81:449-494, Müller-Röver S et al, A Comprehensive Guide for the Accurate Classification of Murine Hair Follicles in Distinct Hair Cycle Stages; J Invest Dermatol 2001, 117:3-15). The percentage of hair follicles in anagen, early, mid and late catagen was determined.
as §7, with “determined in the different assays.” for “determined.”

[3] = test system: human anagen hair follicles; experiment: Ki67/TUNEL staining, percentage of proliferating cells, assay #3; conditions: for Mean percentage of Ki67-positive cells: after 9 days of culture, Anagen only; for Percentage of proliferating cells compared to the control (in words): nine days, p<0.05
Method: as §5
After nine days, Ki67/TUNEL staining was performed and photos taken.
Proliferating and resting cells as well as cells undergoing apoptosis were counted separately proximal Auber's line. Results are expressed as percentages. For Ki-67/TUNEL staining, fixed sections were incubated for 60 minutes in a solution comprising 30% TdT-enzyme (Chemicon International, Inc., Temecula, Calif., USA; CatNo S1707). 2 mL stop buffer (Chemicon International, Inc.; CatNo S7110), diluted in 68 mL distilled water, was added for 10 minutes to stop the reaction. This was followed by a pre-incubation for 20 minutes with 10% goat serum (Dako Cytomation, CatNo 50114121) and incubation with mouse-anti human Ki-67 antigen (Chemicon International, Inc., CatNo S7110) 1:20 in PBS with 2% goat serum. The fixed section was then washed in PBS, treated with anti-digoxigenin antibody (Chemicon International, Inc., CatNo S7110) (59DI Antibody solution and 5601 Stop solution, 30 minutes) and goat anti-mouse-IgG-rhodamine red (Jackson Immuno Research, Suffolk, UK; CatNo 115-295-062), 1:200 in PBS with 2% goat serum. After washes with PBS, counterstaining with DAPI™ ([…]) (Roche, Basel, Switzerland; CatNo 236276) and further washes with PBS and mounting using Fluoromount (Southern Biotech, Birmingham, Ala., USA; CatNo 0100-01).
After nine days, Ki67/TUNEL staining was performed and photos were taken. In anagen hair follicles, proliferating cells and cells undergoing apoptosis were counted separately proximal Auber's line. Results are expressed as percentages. […] The results are summarized in Table 6 and FIG. 9 showing the mean percentage of Ki6 7 positive cells with SEM

[4] = test system: human anagen VI hair follicles; experiment: Hair shaft elongation of organ-cultured hair follicles, assay #1 (culture HF 429)
Method: as §3, §4, §1, §6, §2

thymulin = experiment: Thymulin staining of GH-treated hair follicles

Thymosin alpha-1 (SDAAVDTSSEITTKDLKEKKEVVEEAEN; ends and bridges not checked; UniProt P06454 2-29, looked up) [TA1, 28aa thymic peptide which modulates lymphocyte differentiation]
Mean relative darkening of the groups (measured by image J), Mean ([1]; 100 ng/mL): 81.01 | Mean relative darkening of the groups (measured by image J), Mean ([1]; 1000 ng/mL): 71.61 | Influence on HF melanogenesis (in words) ([1]; quantitative Masson-Fontana histochemistry): did not influence HF melanogenesis | Mean elongation in % compared to day 0 ([2]; 100 ng/mL, Day 0): 0% | Mean elongation in % compared to day 0 ([2]; 100 ng/mL, Day 1): 6.25% | Mean elongation in % compared to day 0 ([2]; 100 ng/mL, Day 3): 45.55% | Mean elongation in % compared to day 0 ([2]; 100 ng/mL, Day 5): 49.52% | Mean elongation in % compared to day 0 ([2]; 100 ng/mL, Day 7): 61.94% | Mean elongation in % compared to day 0 ([2]; 100 ng/mL, Day 9): 69.90% | Rate of hair growth compared with control (in words) ([2]; 100 ng/mL): significantly lowered rate of hair growth | Mean elongation in % compared to day 0 ([2]; 1000 ng/mL, Day 0): 0% | Mean elongation in % compared to day 0 ([2]; 1000 ng/mL, Day 1): 4.00% | Mean elongation in % compared to day 0 ([2]; 1000 ng/mL, Day 3): 37.95% | Mean elongation in % compared to day 0 ([2]; 1000 ng/mL, Day 5): 51.77% | Mean elongation in % compared to day 0 ([2]; 1000 ng/mL, Day 7): 68.36% | Mean elongation in % compared to day 0 ([2]; 1000 ng/mL, Day 9): 73.33% | Rate of hair growth compared with control (in words) ([2]; 1000 ng/mL): significantly lowered rate of hair growth | Hair follicles in anagen compared with control (in words) (human hair follicles): more hair follicles in anagen | Mean percentage of Ki67-positive cells ([3]; 100 ng/mL): 25.15 percentage | Percentage of proliferating cells compared to the control (in words) ([3]; 100 ng/mL): less percentage of cells are proliferating | Mean percentage of Ki67-positive cells ([3]; 1000 ng/mL): 28.05 percentage | Percentage of proliferating cells compared to the control (in words) ([3]; 1000 ng/mL): less percentage of cells are proliferating | Mean elongation in percent compared to day 0 ([4]; 100 ng/mL, Day 0): 0.00% | Mean elongation in percent compared to day 0 ([4]; 100 ng/mL, Day 1): 16.71% | Mean elongation in percent compared to day 0 ([4]; 100 ng/mL, Day 3): 34.54% | Mean elongation in percent compared to day 0 ([4]; 100 ng/mL, Day 5): 51.14% | Mean elongation in percent compared to day 0 ([4]; 100 ng/mL, Day 7): 70.11% | Mean elongation in percent compared to day 0 ([4]; 100 ng/mL, Day 9): 82.55% | Mean elongation in percent compared to day 0 ([4]; 1000 ng/mL, Day 0): 0.00% | Mean elongation in percent compared to day 0 ([4]; 1000 ng/mL, Day 1): 15.41% | Mean elongation in percent compared to day 0 ([4]; 1000 ng/mL, Day 3): 34.74% | Mean elongation in percent compared to day 0 ([4]; 1000 ng/mL, Day 5): 50.66% | Mean elongation in percent compared to day 0 ([4]; 1000 ng/mL, Day 7): 66.20% | Mean elongation in percent compared to day 0 ([4]; 1000 ng/mL, Day 9): 75.26%

GH: GH, pituitary hormone that stimulates the secretion of thymulin
Staining for thymulin compared with the control group (in words) (thymulin): stained more intensively for thymulin
